The target in the assay is T1, human EP4 receptors (Homo sapiens, UniProt P35408).
T1 construct: expressed in transfected cells
T1 sequence (P35408 whole entry): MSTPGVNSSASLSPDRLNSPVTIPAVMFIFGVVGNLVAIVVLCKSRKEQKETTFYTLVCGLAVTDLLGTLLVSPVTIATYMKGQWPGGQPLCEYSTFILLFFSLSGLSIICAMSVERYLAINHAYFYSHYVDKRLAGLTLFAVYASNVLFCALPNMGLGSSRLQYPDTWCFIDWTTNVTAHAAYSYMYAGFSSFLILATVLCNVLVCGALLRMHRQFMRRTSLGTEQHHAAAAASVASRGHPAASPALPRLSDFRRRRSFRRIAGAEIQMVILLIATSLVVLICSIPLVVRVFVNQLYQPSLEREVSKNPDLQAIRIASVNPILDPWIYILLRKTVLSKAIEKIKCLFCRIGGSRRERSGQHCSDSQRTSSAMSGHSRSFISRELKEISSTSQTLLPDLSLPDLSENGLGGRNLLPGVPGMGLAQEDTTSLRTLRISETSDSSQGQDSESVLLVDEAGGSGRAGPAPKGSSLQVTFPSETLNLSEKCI
The assay can be described thus: cAMP assay in human EP4 transfectant. It is filed as cell-based. The following applies: HEK293 cells expressing human EP4 receptors; 1 nM PGE2, 0.2 mM IBMX, 37° C. for 10 min. The method, then: cAMP Assay in Human EP4 Transfectant HEK293 cells expressing human EP4 receptors (hEP4 cells) are maintained in DMEM containing 10% FBS and 500 μg/ml geneticin. For harvesting hEP4 cells, culture medium is aspirated and cells in 75 cm^2 flask are washed with 10 ml of phosphate buffered saline (PBS). Another 10 ml of PBS is added to the cells and incubated for 20 min at room temperature. Human EP4 cells are harvested by pipetting and centrifuged at 300×g for 4 min. Cells are resuspended in DMEM without neutral red at a density of 7×10^5 cells/ml containing 0.2 mM IBMX (PDE inhibitor), 1 nM PGE2 and test compounds in PCR-tubes, and incubated at 37° C. for 10 min. The reaction is stopped by heating at 100° C. for 10 min with thermal cycler. Concentration of cAMP in reaction mixtures is determined with SPA cAMP Kit (Amersham) or cAMP Screen™ (Applied Biosystems) according to the manufacture's instruction. Reference: Eur. J. Pharmacol. 340 (1997) 227-241 cAMP assay in human EP4 transfectant were conducted using the method described above. IC50: the concentration of the individual compound required to reduce the amount of ligand by 50%.
In general terms: Changes in cAMP serve as a functional read-out for many G protein-coupled receptors.
In the case of `C[C@H](NC(=O)c1cc(Cl)ccc1OCc1ccccc1C#N)c1ccc(C(=O)O)cc1` [EXAMPLE 41, 4-[(1S)-1-({5-CHLORO-2-[(2-CYANOBENZYL)OXY]BENZOYL}AMINO)ETHYL]BENZOIC ACID], the half-maximal inhibitory concentration (IC50) (in general, the concentration at which inhibition is half-maximal) turned out to be 39 nM.

For `C[C@H](NC(=O)c1cc(Cl)ccc1OCc1ncccc1Cl)c1ccc(C(=O)O)cc1` [EXAMPLE 47, 4-[(1S)-1-({5-CHLORO-2-[(3-CHLOROPYRIDIN-2-YL)METHOXY]BENZOYL}AMINO)ETHYL]BENZOIC ACID], the IC50 came out at 480 nM.

Take `C[C@H](NC(=O)c1cc(Cl)cnc1N(C)Cc1ccccc1F)c1ccc(C(=O)O)cc1` [EXAMPLE 50, 4-{(1S)-1-[({5-CHLORO-2-[(2-FLUOROBENZYL)(METHYL)AMINO]PYRIDIN-3-YL}CARBONYL)AMINO]ETHYL}BENZOIC ACID]: the half-inhibitory concentration (IC50) was 120 nM.

The compound `O=C(O)c1ccc(CNC(=O)c2cc(Cl)ccc2OCCc2ccc(F)cc2)cc1` [EXAMPLE 3, 4-[({5-CHLORO-2-[2-(4-FLUOROPHENYL)ETHOXY]BENZOYL}AMINO)METHYL]BENZOIC ACID] yielded an IC50 of 126 nM.

`C[C@H](NC(=O)c1cc(Cl)ccc1OCc1ccc(Cl)cc1F)c1ccc(C(=O)O)cc1` [EXAMPLE 45, 4-[(1S)-1-({5-CHLORO-2-[(4-CHLORO-2-FLUOROBENZYL)OXY]BENZOYL}AMINO)ETHYL]BENZOIC ACID] returned a 50% inhibitory concentration (IC50) of 65 nM.

Take `O=C(O)c1ccc(CNC(=O)c2cc(Cl)ccc2OCCc2ccc(Cl)cc2)cc1` [EXAMPLE 4, 4-[({5-CHLORO-2-[2-(4-CHLOROPHENYL)ETHOXY]BENZOYL}AMINO)METHYL]BENZOIC ACID]: the midpoint of inhibition, the IC50, lay at 107 nM.

`C[C@H](NC(=O)c1cc(Cl)cnc1N(C)Cc1cccc(F)c1)c1ccc(C(=O)O)cc1` [EXAMPLE 53, 4-{(1S)-1-[({5-CHLORO-2-[(3-FLUOROBENZYL)(METHYL)AMINO]PYRIDIN-3-YL}CARBONYL)AMINO]ETHYL}BENZOIC ACID] registered an IC50 of 180 nM.

Compound `C[C@H](NC(=O)c1cc(Cl)ccc1OCc1ccc(Cl)cc1)c1ccc(C(=O)O)cc1` [EXAMPLE 24, 4-[(1S)-1-({5-CHLORO-2-[(4-CHLOROBENZYL)OXY]BENZOYL}AMINO)ETHYL]BENZOIC ACID] displayed an IC50 of 29 nM.

On to `C[C@H](NC(=O)c1cc(Cl)ccc1O[C@H]1CC[C@@H](C)CC1)c1ccc(C(=O)O)cc1` [EXAMPLE 17, 4-[(1S)-1-({5-CHLORO-2-[(C/S4-METHYLCYCLOHEXYL)OXY]BENZOYL}AMINO)ETHYL]BENZOIC ACID], for which the IC50 is 510 nM.

`C[C@H](NC(=O)c1cc(Cl)ccc1OCCc1c(F)cccc1F)c1ccc(C(=O)O)cc1` [EXAMPLE 8, 4-[(1S)-1-({5-CHLORO-2-[2-(2,6-DIFLUOROPHENYL)ETHOXY]BENZOYL}AMINO)ETHYL]BENZOIC ACID] gave an IC50 of 98 nM.

With `C[C@H](NC(=O)c1cc(Cl)ccc1OCc1ccc(F)cc1)c1ccc(C(=O)O)cc1` [EXAMPLE 25, 4-[(1S)-1-({5-CHLORO-2-[(4-FLUOROBENZYL)OXY]BENZOYL}AMINO)ETHYL]BENZOIC ACID], the IC50 was 46 nM.

Compound `C[C@H](NC(=O)c1cc(Cl)cnc1OCc1ccc(Cl)cc1)c1ccc(C(=O)O)cc1` [EXAMPLE 40, 4-{(1S)-1-[({5-CHLORO-2-[(4-CHLOROBENZYL)OXY]PYRIDIN-3-YL}CARBONYL)AMINO]ETHYL}BENZOIC ACID] came in with an IC50 of 72 nM.

In turn, `COC(C)(C)CCOc1ccc(Cl)cc1C(=O)N[C@@H](C)c1ccc(C(=O)O)cc1` [EXAMPLE 20, 4-((1S)-1-{[5-CHLORO-2-(3-METHOXY-3-METHYLBUTOXY)BENZOYL]AMINO}ETHYL)BENZOIC ACID] gave an IC50 of 510 nM.

The compound `C[C@H](NC(=O)c1cc(Cl)ccc1OCCC1CCOCC1)c1ccc(C(=O)O)cc1` [EXAMPLE 42, 4-[(1S)-1-({5-CHLORO-2-[2-(TETRAHYDRO-2H-PYRAN-4-YL)ETHOXY]BENZOYL}AMINO)ETHYL]BENZOIC ACID] displayed an IC50 of 467 nM.

As to `C[C@H](NC(=O)c1cc(Cl)ccc1OCc1ccc(F)cc1Cl)c1ccc(C(=O)O)cc1` [EXAMPLE 46, 4-[(1S)-1-({5-CHLORO-2-[(2-CHLORO-4-FLUOROBENZYL)OXY]BENZOYL}AMINO)ETHYL]BENZOIC ACID], the IC50 is 55 nM.

With `C[C@H](NC(=O)c1cc(Cl)ccc1OCc1cc(F)cc(F)c1)c1ccc(C(=O)O)cc1` [EXAMPLE 37, 4-[(1S)-1-({5-CHLORO-2-[(3,5-DIFLUOROBENZYL)OXY]BENZOYL}AMINO)ETHYL]BENZOIC ACID], half-maximal inhibition (IC50) required 78 nM.

For the compound `C[C@H](NC(=O)c1cc(Cl)ccc1OCCc1ccc(F)cc1)c1ccc(C(=O)O)cc1` [EXAMPLE 34, 4-[(1S)-1-({5-CHLORO-2-[2-(4-FLUOROPHENYL)ETHOXY]BENZOYL}AMINO)ETHYL]BENZOIC ACID], the IC50 stood at 41 nM.

For the compound `C[C@H](NC(=O)c1cc(Cl)ccc1OCC1CCC1)c1ccc(C(=O)O)cc1` [EXAMPLE 29, 4-((1S)-1-{[5-CHLORO-2-(CYCLOBUTYLMETHOXY)BENZOYL]AMINO}ETHYL)BENZOIC ACID], the IC50 worked out at 30 nM.

For the origin of these results see patent US20050250818A1, “Ortho substituted aryl or heteroaryl amide compounds” (Pfizer Inc, priority 2004, published 2005).
